Measurements taken from patent US20170327789A1, “Modulation of Dopamine Receptor to Promote Neural Cell Differentiation” (The Hospital for Sick Children, priority 2014, published 2017).

Assays:
human fetal NSC (hf5205) = assay: Immunocytochemistry for Vglut1 after 3 weeks differentiation; assay type: cell-based; settings: 2-step growth withdrawal
Description: Antibodies included: Beta-III tubulin (1:100 MAB1637), GFAP (1:1000, DAKO), Vglut1 (1:1000, Synaptic system), GABA (1:1000, Sigma). Appropriate fluorescent-conjugated secondary antibodies were used at 1:500 for 1 h at room temperature. Coverslips were mounted with fluorescent mounting medium (DAKO) containing DAPI (1:1000) and cells were imaged using Leica microscope. Hit validation for differentation. All retests for differentiation were done by a two step growth withdrawal method (as described in Sun et al. Mol. Cell. Neurosci. 38(2008) 245-258) with and without the test compound for 8 days. […] Immunocytochemistry was performed for a series of antibodies marking different classes of neurons based on their neurotransmitters including glutamatergic, dopaminergic, cholinergic and serotonergic. […] Vglut1 is a vesicular glutamate transporter required for transport of glutamate into synaptic vesicles of glutamatergic neurons.

human fetal NSC [1] = assay: RT-qPCR gene expression of neuronal lineage and cortical layer markers in differentiated cells; assay type: cell-based
Description: Hit validation for differentation. All retests for differentiation were done by a two step growth withdrawal method (as described in Sun et al. Mol. Cell. Neurosci. 38(2008) 245-258) with and without the test compound for 8 days. Test compounds included L-741,742 (3 μM), PNU96415E (15 μM), Ifenprodil tartrate (1.5 μM), McN A-343 (4 μM), and (−) —N-Phenylcarbamoyleseroline (6 μM). For mature neuronal marker analysis, human fetal NSC were differentiated for 3 weeks using L-741,742 (2-4 μM varying at different stages) in the two step growth withdrawal method.
The differentiated cells were further tested for gene expression of different neuronal lineage markers by RT-qPCR. A series of primers were designed for markers representing both neurotransmitters and domain specific regions as shown in Table 1.
L-741,742-differentiated neurons show cortical layer V marker. L-741,742-differentiated cells show increased expression of VGLUT1 and NEUROG2. NEUROG2 expression is required for promoting excitatory neurons in the dorsal cortical region during development. To test if L-741,742 promotes or specifies specific cortical layer neurons, a series of primers were designed to mark all layers of cortex; Reelin (layer 1), Tbr1 (layer V1), Ctip2 (Layer V), Satb2 (Layer II-III) and Foxg1 (telenchepalic marker) (Table 1). The expression of these markers in L-741,742-differentiated cells was determined by RT-qPCR. […] Thus, L-741,742-differentiated neurons express cortical layer V marker CTIP2 and telencephalic marker FOXG1, with VGLUT1 expression, indicating differentiation into cortical layer neurons.

human fetal NSC [2] = assay: GABA staining of differentiated cells, week 1-3; assay type: cell-based; settings: 2 week differentiated cells
Description: Immunocytochemistry. hfNS cells differentiated on coverslips were fixed with 4% paraformaldehyde and permeabilized with 0.3% Triton X100, block with 5% goat serum, and incubated with primary antibody overnight at 4° C. Antibodies included: Beta-III tubulin (1:100 MAB1637), GFAP (1:1000, DAKO), Vglut1 (1:1000, Synaptic system), GABA (1:1000, Sigma). Appropriate fluorescent-conjugated secondary antibodies were used at 1:500 for 1 h at room temperature. Coverslips were mounted with fluorescent mounting medium (DAKO) containing DAPI (1:1000) and cells were imaged using Leica microscope.
L-741,742-differentiated cells were also tested for GABA staining from week 1-3 and GABA positive cells were present in early in 1 week differentiated cells, showing up to 11% GABA positive neurons in 2 week differentiated cells (FIG. 5).

Hf5205 cells = assay: Single cell qPCR (Fluidigm analysis) of differentiated cells; assay type: cell-based, human; settings: 3.5 μM, three weeks
Description: Single Cell qPCR (Fluidigm Analysis). Differentiated hfNS (hf5205) at week 3 was accutased and cells were resuspended in NS medium containing 1 μg per ml of propidium iodide and filtered through a 40 μm nylon cell strainer followed by live single cell sorting into a 96 well qPCR plate on a BD cell sorter. Cells were sorted into 10 μl of preamplification mix containing 40 nM of all primers for the 48 genes, and the following components of CellsDirect One-Step qRT-PCR kit (Invitrogen) as directed in protocol: 2× reaction mix, SuperScript III RT/platinum Taq mix. After sorting, samples were reverse transcribed and preamplified for 18 cycles. Preamplified samples were diluted (2×) with TE buffer and stored at −20° C. Sample and assay primer preparation for Fluidigm Dynamic arrays was done according to the manufacturer's recommendation. Samples were mixed with 2× assay loading reagent (Fluidigm Corp), 20× EvaGreen and TaqMan gene expression master mix. The Fluidigm Dynamic arrays were primed and loaded on the IFC controller and qPCR experiments were run on a Biomark system for genetic analysis.
Fluidigm Analysis. Hf5205 cells were differentiated in the two-step growth withdrawal method, with and without L-741,742 (3.5 μM) for three weeks. The differentiated cells were harvested and filtered through a 40 uM nylon filter and live sort single cell (based on PI staining) into a 96 well qRT-PCR plate containing pre-amplification mix of 48 primers, reverse transcribed and amplified for 48 genes (as described in Pasca et al. Nature Medicine (2011) November 27; 17(12) 1657-62) in one step using a kit from Invitrogen. Samples and primer pairs were prepared for Fluidigm as per protocol. Cells were identified based on presence of RPS18 and GAPDH, Data was analyzed based on population of cells expressing particular genes using different CT value cut off.
Characterization of L-741,742-differentiated cells by Fluidigm analysis. To further characterize the different population of neurons in L-741,742 differentiated culture, a single cell Fluidigm array was employed that can perform multiple qRT-PCR (48 genes or 96 genes) at a single cell level as shown in FIG. 6. Forty eight (48) gene primers marking various cell populations were used including, early progenitor marking dorsal, ventral or midbrain, differentiated neuronal markers based on neurotransmitters GABA or glutamatergic and markers specifying different cortical layers. Primer sequences were obtained from Pasca et al. Nature Medicine (2011) November 27; 17(12) 1657-62).

Molecule | Vglut1-positive staining indicating differentiation into glutamatergic neurons (human fetal NSC (hf5205)) | Reelin expression (human fetal NSC [1]; at the concentration tested) | Tbr1 expression (human fetal NSC [1]; at the concentration tested) | increase in NEUROG2 expression (human fetal NSC [1]; compared to the control) | increase in VGLUT1 expression (human fetal NSC [1]; compared to the control) | increase in CTIP2 expression (human fetal NSC [1]; cortical layer V marker) | increase in FOXG1 expression (human fetal NSC [1]; telencephalic marker) | GABA positive neurons (human fetal NSC [2]) | expression of CAMKII (marking glutamatergic neurons) (Hf5205 cells) | expression of EVT1 (marking lower cortical layer V) (Hf5205 cells) | expression of MAP2 (marking neurons) (Hf5205 cells) | expression of VGLUT1 (marking glutamatergic neurons) (Hf5205 cells) | expression of VGLUT2 (marking glutamatergic neurons) (Hf5205 cells) | expression of VGLUT3 (marking glutamatergic neurons) (Hf5205 cells)
Cc1c(C2CCN(CCc3ccccc3)CC2)noc1-c1ccc(Cl)cc1 [L-741,742] | Vglut1-positive staining | not detectable | not detectable | 11 fold | 15-35 fold | approximately 23 fold | ~27 fold | up to 11% | increase | increase | increase | increase | increase | increase
Cl.Cl.Fc1ccc(N2CCN(CCC3OCCc4ccccc43)CC2)cc1 (stereo not shown) [PNU96415E] | Vglut1-positive staining |  |  |  |  |  |  |  |  |  |  |  |  | 
Ifenprodil tartrate | Vglut1-positive staining |  |  |  |  |  |  |  |  |  |  |  |  | 
